# Experimental data from patent US8192962B2, “Processes for detecting toxic substances” (Daikin Industries, Ltd., priority 2001, dated 2012).
# System: Metabolism protein genes
# Experiment: DNA chip mRNA expression in yeast, metabolism protein genes (Table 7)
# Type: cell-based, Saccharomyces cerevisiae S288C
# Outline: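 Measured as treated-to-untreated fluorescence ratio on a full-genome yeast DNA chip. Cells (S288C, YPD, 25° C.) were exposed in log phase for two hours to one chemical, dosed to curb growth without killing.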
structure (smiles),measurement,setting,value
"CCCCC[C@H](O)CC(=O)CCc1ccc(O)c(OC)c1 [(13), gingerol]",The level of expressed mRNA in the presence of chemical substance/The level of expressed mRNA in the absence of chemical substance,yeast gene YJL099W,2.4
same,level of expressed mRNA in the presence/in the absence of chemical substance,yeast gene YJL121C,0.7
same,level of expressed mRNA in the presence/in the absence of chemical substance,yeast gene YJL167W,0.9
same,The level of expressed mRNA in the presence of chemical substance/The level of expressed mRNA in the absence of chemical substance,yeast gene YJL172W,3.1
same,level of expressed mRNA in the presence/in the absence of chemical substance,yeast gene YJL216C,1.1
same,level of expressed mRNA in the presence/in the absence of chemical substance,yeast gene YJR077C,0.9
same,The level of expressed mRNA in the presence of chemical substance/The level of expressed mRNA in the absence of chemical substance,yeast gene YJR137C,2.1
same,level of expressed mRNA in the presence/in the absence of chemical substance,yeast gene YJR143C,0.3
same,The level of expressed mRNA in the presence of chemical substance/The level of expressed mRNA in the absence of chemical substance,yeast gene YJR148W,1.1
same,The level of expressed mRNA in the presence of chemical substance/The level of expressed mRNA in the absence of chemical substance,yeast gene YJR155W,5.7
same,The level of expressed mRNA in the presence of chemical substance/The level of expressed mRNA in the absence of chemical substance,yeast gene YKL035W,2.0
same,level of expressed mRNA in the presence/in the absence of chemical substance,yeast gene YKL060C,1.2
same,The level of expressed mRNA in the presence of chemical substance/The level of expressed mRNA in the absence of chemical substance,yeast gene YKL091C,2.0
same,The level of expressed mRNA in the presence of chemical substance/The level of expressed mRNA in the absence of chemical substance,yeast gene YKL104C,2.2
same,level of expressed mRNA in the presence/in the absence of chemical substance,yeast gene YKL148C,0.8
same,The level of expressed mRNA in the presence of chemical substance/The level of expressed mRNA in the absence of chemical substance,yeast gene YKL152C,2.7
same,level of expressed mRNA in the presence/in the absence of chemical substance,yeast gene YKL157W,2.3
same,The level of expressed mRNA in the presence of chemical substance/The level of expressed mRNA in the absence of chemical substance,yeast gene YKL213C,2.1
same,The level of expressed mRNA in the presence of chemical substance/The level of expressed mRNA in the absence of chemical substance,yeast gene YKL215C,2.6
same,level of expressed mRNA in the presence/in the absence of chemical substance,yeast gene YKR034W,1.2
same,The level of expressed mRNA in the presence of chemical substance/The level of expressed mRNA in the absence of chemical substance,yeast gene YKR039W,1.3
same,The level of expressed mRNA in the presence of chemical substance/The level of expressed mRNA in the absence of chemical substance,yeast gene YLL058W,2.3
same,level of expressed mRNA in the presence/in the absence of chemical substance,yeast gene YLR006C,0.8
same,level of expressed mRNA in the presence/in the absence of chemical substance,yeast gene YLR044C,1.7
same,level of expressed mRNA in the presence/in the absence of chemical substance,yeast gene YLR056W,0.2
same,level of expressed mRNA in the presence/in the absence of chemical substance,yeast gene YLR058C,0.3
same,level of expressed mRNA in the presence/in the absence of chemical substance,yeast gene YLR081W,0.6
same,level of expressed mRNA in the presence/in the absence of chemical substance,yeast gene YLR089C,1.0
same,The level of expressed mRNA in the presence of chemical substance/The level of expressed mRNA in the absence of chemical substance,yeast gene YLR180W,0.6
same,The level of expressed mRNA in the presence of chemical substance/The level of expressed mRNA in the absence of chemical substance,yeast gene YLR273C,1.7
same,level of expressed mRNA in the presence/in the absence of chemical substance,yeast gene YLR284C,0.8
same,The level of expressed mRNA in the presence of chemical substance/The level of expressed mRNA in the absence of chemical substance,yeast gene YLR299W,2.9
same,level of expressed mRNA in the presence/in the absence of chemical substance,yeast gene YLR304C,0.5
same,The level of expressed mRNA in the presence of chemical substance/The level of expressed mRNA in the absence of chemical substance,yeast gene YLR307W,1.0
same,The level of expressed mRNA in the presence of chemical substance/The level of expressed mRNA in the absence of chemical substance,yeast gene YLR348C,1.9
same,level of expressed mRNA in the presence/in the absence of chemical substance,yeast gene YLR354C,1.0
same,level of expressed mRNA in the presence/in the absence of chemical substance,yeast gene YLR372W,0.1
same,level of expressed mRNA in the presence/in the absence of chemical substance,yeast gene YML022W,0.2
same,level of expressed mRNA in the presence/in the absence of chemical substance,yeast gene YMR011W,0.4
same,level of expressed mRNA in the presence/in the absence of chemical substance,yeast gene YMR015C,0.4
same,level of expressed mRNA in the presence/in the absence of chemical substance,yeast gene YMR083W,0.9
same,The level of expressed mRNA in the presence of chemical substance/The level of expressed mRNA in the absence of chemical substance,yeast gene YMR189W,0.9
same,level of expressed mRNA in the presence/in the absence of chemical substance,yeast gene YMR205C,1.3
same,level of expressed mRNA in the presence/in the absence of chemical substance,yeast gene YMR261C,1.6
same,The level of expressed mRNA in the presence of chemical substance/The level of expressed mRNA in the absence of chemical substance,yeast gene YMR296C,0.9
same,level of expressed mRNA in the presence/in the absence of chemical substance,yeast gene YMR323W,1.8
same,The level of expressed mRNA in the presence of chemical substance/The level of expressed mRNA in the absence of chemical substance,yeast gene YNL012W,2.9
same,level of expressed mRNA in the presence/in the absence of chemical substance,yeast gene YNL025C,1.3
same,The level of expressed mRNA in the presence of chemical substance/The level of expressed mRNA in the absence of chemical substance,yeast gene YNL037C,1.9
same,The level of expressed mRNA in the presence of chemical substance/The level of expressed mRNA in the absence of chemical substance,yeast gene YNL045W,2.6
same,The level of expressed mRNA in the presence of chemical substance/The level of expressed mRNA in the absence of chemical substance,yeast gene YNL104C,2.1
same,The level of expressed mRNA in the presence of chemical substance/The level of expressed mRNA in the absence of chemical substance,yeast gene YNL106C,0.9
same,The level of expressed mRNA in the presence of chemical substance/The level of expressed mRNA in the absence of chemical substance,yeast gene YNL169C,1.7
same,level of expressed mRNA in the presence/in the absence of chemical substance,yeast gene YNL192W,2.7
same,The level of expressed mRNA in the presence of chemical substance/The level of expressed mRNA in the absence of chemical substance,yeast gene YNL322C,0.8
same,The level of expressed mRNA in the presence of chemical substance/The level of expressed mRNA in the absence of chemical substance,yeast gene YNL331C,3.1
same,The level of expressed mRNA in the presence of chemical substance/The level of expressed mRNA in the absence of chemical substance,yeast gene YNL332W,2.1
same,The level of expressed mRNA in the presence of chemical substance/The level of expressed mRNA in the absence of chemical substance,yeast gene YNR002C,2.1
same,The level of expressed mRNA in the presence of chemical substance/The level of expressed mRNA in the absence of chemical substance,yeast gene YNR019W,2.1
same,The level of expressed mRNA in the presence of chemical substance/The level of expressed mRNA in the absence of chemical substance,yeast gene YNR059W,2.4
same,The level of expressed mRNA in the presence of chemical substance/The level of expressed mRNA in the absence of chemical substance,yeast gene YOL058W,1.2
same,level of expressed mRNA in the presence/in the absence of chemical substance,yeast gene YOL086C,1.7
same,level of expressed mRNA in the presence/in the absence of chemical substance,yeast gene YOL108C,1.3
same,level of expressed mRNA in the presence/in the absence of chemical substance,yeast gene YOL116W,0.8
same,The level of expressed mRNA in the presence of chemical substance/The level of expressed mRNA in the absence of chemical substance,yeast gene YOL143C,1.2
same,level of expressed mRNA in the presence/in the absence of chemical substance,yeast gene YOL156W,1.7
same,The level of expressed mRNA in the presence of chemical substance/The level of expressed mRNA in the absence of chemical substance,yeast gene YOL165C,3.7
same,level of expressed mRNA in the presence/in the absence of chemical substance,yeast gene YOR002W,0.6
same,level of expressed mRNA in the presence/in the absence of chemical substance,yeast gene YOR085W,1.0
same,The level of expressed mRNA in the presence of chemical substance/The level of expressed mRNA in the absence of chemical substance,yeast gene YOR099W,1.6
same,level of expressed mRNA in the presence/in the absence of chemical substance,yeast gene YOR103C,0.8
same,level of expressed mRNA in the presence/in the absence of chemical substance,yeast gene YOR108W,1.3
same,level of expressed mRNA in the presence/in the absence of chemical substance,yeast gene YOR128C,0.4
same,The level of expressed mRNA in the presence of chemical substance/The level of expressed mRNA in the absence of chemical substance,yeast gene YOR130C,2.1
same,The level of expressed mRNA in the presence of chemical substance/The level of expressed mRNA in the absence of chemical substance,yeast gene YOR136W,1.5
same,level of expressed mRNA in the presence/in the absence of chemical substance,yeast gene YOR142W,1.4
same,level of expressed mRNA in the presence/in the absence of chemical substance,yeast gene YOR176W,1.5
same,level of expressed mRNA in the presence/in the absence of chemical substance,yeast gene YOR178C,1.0
same,level of expressed mRNA in the presence/in the absence of chemical substance,yeast gene YOR251C,1.0
same,The level of expressed mRNA in the presence of chemical substance/The level of expressed mRNA in the absence of chemical substance,yeast gene YOR336W,2.1
same,The level of expressed mRNA in the presence of chemical substance/The level of expressed mRNA in the absence of chemical substance,yeast gene YOR347C,1.8
same,level of expressed mRNA in the presence/in the absence of chemical substance,yeast gene YOR348C,1.1
same,The level of expressed mRNA in the presence of chemical substance/The level of expressed mRNA in the absence of chemical substance,yeast gene YPL017C,1.9
same,level of expressed mRNA in the presence/in the absence of chemical substance,yeast gene YPL028W,0.9
same,level of expressed mRNA in the presence/in the absence of chemical substance,yeast gene YPL057C,1.3
same,level of expressed mRNA in the presence/in the absence of chemical substance,yeast gene YPL135W,1.2
same,level of expressed mRNA in the presence/in the absence of chemical substance,yeast gene YPL148C,0.6
same,level of expressed mRNA in the presence/in the absence of chemical substance,yeast gene YPR113W,0.7
same,level of expressed mRNA in the presence/in the absence of chemical substance,yeast gene YPR165W,1.0
same,The level of expressed mRNA in the presence of chemical substance/The level of expressed mRNA in the absence of chemical substance,yeast gene YPR167C,1.9
same,level of expressed mRNA in the presence/in the absence of chemical substance,yeast gene YPR183W,1.6
